Test results published in PMC12045974, “T cell toxicity induced by tigecycline binding to the mitochondrial ribosome” (Nature Communications, 2025).
Where “and” joins values, the source holds several entries; their conditions need not be identical. Equal entries are not always repeated.

Test system: CD4+ and CD8+ T cells within PBMCs
Test: T cell proliferation by flow cytometry (CTV/CFSE dilution) in stimulated PBMCs
Format: cell-based, human
Description: After thawing frozen PBMCs, cells were washed with RPMI complemented with 10% FBS, 2.05 mM L-glutamine (Sigma), and 55 μM 2-ME (Gibco) and rested at 37 °C (5% CO2) for 30 min. 250,000 cells per well were seeded in 96-well U-bottom plates with/without Human T-Activator CD3/CD28 beads (Invitrogen) at a 1:1 ratio and 10 ng/ml IL-2 (Proteintech) in RPMI-1640 medium mentioned above. At the same time, antibiotics were added. For the short-term activation assay, cells were harvested 18 h post-stimulation and stained with Aqua fixable live/dead dye (Invitrogen) and surface markers. For the proliferation assays, cells were stained with CFSE (eBioscience) or Cell Trace Violet (ThermoFisher Scientific) dyes before seeding and stimulation, according to the manufacturer’s recommendations. For TCR priming experiments, tigecycline was added at 0, 24 or 72 h post-activation. For mitochondrial mass measuring, cells were stained with Mitotracker Green Fm Dye (Thermo Fisher Scientific) after incubation with Tigecycline. After incubation for 6 days with a half medium (complete, with antibiotics and IL-2) change after 3 days, cells were harvested via centrifugation, and stained with live/dead dye and surface markers for analysis by flow cytometry. The Foxp3/Transcription Factor Staining Buffer Set (Invitrogen) was used to fix cells according to the manufacturer’s instructions. The FACS gating strategy is shown in Supplementary Fig. 2D. Flow cytometry was carried out on a BD Celesta (BD Biosciences) and analyzed in FlowJo (TreeStar) software.

## CN(C)c1cc(NC(=O)CNC(C)(C)C)c(O)c2c1C[C@H]1C[C@H]3[C@H](N(C)C)C(O)=C(C(N)=O)C(=O)[C@@]3(O)C(O)=C1C2=O [Tigecycline, tigecycline]
10 μM administered 24 or 72 h after TCR stimulation
  T cell culture proliferation: significantly reduce
CD4+ and CD8+ T cells within PBMCs, 6 days of anti-CD3/CD28 stimulation + IL-2
  T cell proliferation: dose-dependent reductions in proliferation
CD4, 0H
  % Cells in division 4 or later: 0.15% and 0.18% and 0.39%
CD4, 0H, division number 1
  % Cells in each division: 23.9% and 13% and 15.5%
CD4, 0H, division number 2
  % Cells in each division: 20.2% and 38.4% and 32.9%
CD4, 0H, division number 4
  % Cells in each division: 0.42% and 2.83% and 5.88%
CD4, 0H, division number 5
  % Cells in each division: 0% and 0.019% and 0.22%
CD4, 0H, division number 6
  % Cells in each division: 0%
CD4, 0H, division number 7
  % Cells in each division: 0%
CD4, 10μM, 6 days, CTV dilution in live cells
  % Cells in division 4 or later: 6.485% and 4.27% and 0.862% and 2.104% and 3.325%
CD4, 24H
  % Cells in division 4 or later: 0.21% and 0.19% and 0.9%
CD4, 24H, division number 2
  % Cells in each division: 18.2% and 32.4% and 28.8%
CD4, 24H, division number 5
  % Cells in each division: 0.044% and 0.15% and 0.38%
CD4, 24H, division number 6
  % Cells in each division: 0% and 0.01%
CD4, 24H, division number 7
  % Cells in each division: 0%
CD4, 72H, division number 3
  % Cells in each division: 22.6% and 24.4% and 18.1%
CD4, 72H, division number 6
  % Cells in each division: 1.08% and 0.32% and 1.2%
CD4, 72H, division number 7
  % Cells in each division: 0%
CD8, 0H
  % Cells in division 4 or later: 0.42% and 2.88% and 6.11%
CD8, 0H, division number 1
  % Cells in each division: 38.7% and 31.7%
CD8, 0H, division number 2
  % Cells in each division: 25.1% and 40.8% and 45.6%
CD8, 0H, division number 3
  % Cells in each division: 4.86% and 6.4% and 12.3%
CD8, 0H, division number 4
  % Cells in each division: 0.15% and 0.18% and 0.36%
CD8, 0H, division number 5
  % Cells in each division: 0% and 0.019%
CD8, 0H, division number 6
  % Cells in each division: 0%
CD8, 0H, division number 7
  % Cells in each division: 0%
CD8, 2.5μM, 6 days, CTV dilution in live cells
  % Cells in division 4 or later: 47.18% and 43.35% and 55.18% and 63.83% and 48.432%
CD8, 10μM, 6 days, CTV dilution in live cells
  % Cells in division 4 or later: 6.12% and 2.26% and 7.121% and 11.81% and 6.155%
CD8, 24H, division number 1
  % Cells in each division: 36.2% and 37.7% and 34%
CD8, 24H, division number 2
  % Cells in each division: 22.1% and 39.5% and 41.6%
CD8, 24H, division number 3
  % Cells in each division: 4.04% and 8.22% and 12.9%
CD8, 24H, division number 4
  % Cells in each division: 0.19% and 0.87%
CD8, 24H, division number 5
  % Cells in each division: 0.018% and 0% and 0.019%
CD8, 24H, division number 6
  % Cells in each division: 0%
CD8, 24H, division number 7
  % Cells in each division: 0%
CD8, 72H, division number 0
  % Cells in each division: 1.06% and 7.49% and 1.18%
CD8, 72H, division number 2
  % Cells in each division: 24.9% and 34.1% and 20.9%
CD8, 72H, division number 3
  % Cells in each division: 45.1% and 28.9% and 40.2%
CD8, 72H, division number 5
  % Cells in each division: 2.16% and 0.67% and 3.66%
CD8, 72H, division number 6
  % Cells in each division: 0.03% and 0.025% and 0.033%
CD8, 72H, division number 7
  % Cells in each division: 0%
